This test concerns LXRα and/or LXRβ. Briefly: Co-transfection assay (LXRE luciferase reporter, CV-1 cells). The test is classed as cell-based, human. To be noted: tested as described in Example 33; IC50 or EC50 for LXRα and/or LXRβ, isoform not specified; read-out: activity (IC50 or EC50 for LXR). Put shortly:
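Luciferase signal measures LXR-RXR transcriptional activation in transiently transfected CV-1 cells carrying human LXRα or LXRβ, RXRα and a single-copy LXRE reporter. Cells were exposed to compound for 20 h at 37 °C with at most 1% DMSO, using 10 μM final for screening. Potency was derived from 4-parameter fits of 8-point, half-log dose curves averaged over ≥3 runs, and efficacy was expressed as % of a reference agonist.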

The values below come from patent US9000022B2 (Exelixis Patent Company LLC, priority 2005, dated 2015).

Regarding `CC(C)(O)CNC(=O)c1cn(-c2ccc(-c3cccc(S(C)(=O)=O)c3)cc2Cl)c(-c2c(Cl)cccc2Cl)n1` [Example 472, 1-(3-chloro-3′-(methylsulfonyl)biphenyl-4-yl)-2-(2,6-dichlorophenyl)-N-(2-hydroxy-2-methylpropyl)-1H-imidazole-4-carboxamide], the IC50 or EC50 (potency, activation or inhibition) is < 1000 nM.

In the case of `CCS(=O)(=O)c1cccc(-c2ccc(-n3cc(C(=O)NCC(C)(C)O)nc3-c3c(Cl)cccc3Cl)c(Cl)c2)c1` [Example 473, 1-(3-chloro-3′-(ethylsulfonyl)biphenyl-4-yl)-2-(2,6-dichlorophenyl)-N-(2-hydroxy-2-methylpropyl)-1H-imidazole-4-carboxamide], the IC50 or EC50 (potency, activation or inhibition) is < 1000 nM.

`CC(C)(O)c1cn(-c2ccc(-c3cccc(S(C)(=O)=O)c3)cc2)c(Cc2cc(Cl)ccc2F)n1` [Example 474, 2-(2-(5-chloro-2-fluorobenzyl)-1-(3′-(methylsulfonyl)biphenyl-4-yl)-1H-imidazol-4-yl)propan-2-ol]: the IC50 or EC50 (potency, activation or inhibition) is < 1000 nM.

Take `CC(C)(O)c1cn(-c2ccc(-c3ccc(CO)cc3)cc2)c(-c2cccc(Cl)c2Cl)n1` [Example 475, 2-(2-(2,3-dichlorophenyl)-1-(4′-(hydroxymethyl)biphenyl-4-yl)-1H-imidazol-4-yl)propan-2-ol]: the IC50 or EC50 (potency, activation or inhibition) fell in the range of 1000 to 10000 nM.

As for `CC(C)(O)c1cn(-c2ccc(-c3cccc(CO)c3)cc2)c(-c2cccc(Cl)c2Cl)n1` [Example 476, 2-(2-(2,3-dichlorophenyl)-1-(3′-(hydroxymethyl)biphenyl-4-yl)-1H-imidazol-4-yl)propan-2-ol], the IC50 or EC50 (potency, activation or inhibition) fell in the range of 1000 to 10000 nM.

On to `CC(C)(O)c1ccc(-c2ccc(-n3cc(C(C)(C)O)nc3-c3cccc(Cl)c3Cl)cc2)cc1` [Example 477, 2-(2-(2,3-dichlorophenyl)-1-(4′-(2-hydroxypropan-2-yl)biphenyl-4-yl)-1H-imidazol-4-yl)propan-2-ol], for which the IC50 or EC50 (potency, activation or inhibition) was in the range of 1000 to 10000 nM.

With `CC(C)(CO)c1cn(-c2ccc(-c3cccc(S(C)(=O)=O)c3)cc2)c(-c2c(Cl)cccc2Cl)n1` [Example 479, 2-(2-(2,6-dichlorophenyl)-1-(3′-(methylsulfonyl)biphenyl-4-yl)-1H-imidazol-4-yl)-2-methylpropan-1-ol], the IC50 or EC50 (potency, activation or inhibition) is < 1000 nM.

`CC(C)(CO)NC(=O)c1cn(-c2ccc(-c3cccc(C(C)(C)O)c3)cc2Cl)c(-c2c(Cl)cccc2Cl)n1` [Example 480, 1-(3-chloro-3′-(2-hydroxypropan-2-yl)biphenyl-4-yl)-2-(2,6-dichlorophenyl)-N-(1-hydroxy-2-methylpropan-2-yl)-1H-imidazole-4-carboxamide]: the IC50 or EC50 (potency, activation or inhibition) is < 1000 nM.

As to `CC(C)(CO)NC(=O)c1cn(-c2ccc(-c3cccc(S(C)(=O)=O)c3)cc2)c(-c2c(Cl)cccc2Cl)n1` [Example 481, 2-(2,6-dichlorophenyl)-N-(1-hydroxy-2-methylpropan-2-yl)-1-(3′-(methylsulfonyl)biphenyl-4-yl)-1H-imidazole-4-carboxamide], the IC50 or EC50 (potency, activation or inhibition) is < 1000 nM.

Take `CCS(=O)(=O)c1cccc(-c2ccc(-n3cc(C(C)(C)O)nc3Cc3cc(Cl)ccc3F)cc2)c1` [Example 482, 2-(2-(5-chloro-2-fluorobenzyl)-1-(3′-(ethylsulfonyl)biphenyl-4-yl)-1H-imidazol-4-yl)propan-2-ol]: the IC50 or EC50 (potency, activation or inhibition) was < 1000 nM.
